Calls of active or inactive are those of the source. The rule behind the calls is not given here.
Columns and labels:
[1] = target: Histone deacetylase 1 (Homo sapiens, UniProt Q13547); assay: Inhibition of full length N-terminal human recombinant HDAC1 at 1 uM incubated for 30 mins by fluorescence based microplate assay relative to control
[2] = Half life in Wistar rat at 5 mg/kg, ip measured upto 24 hrs by HPLC analysis; format: ADME, organism-based; settings: in vivo
[3] = Tmax in Wistar rat at 5 mg/kg, ip measured upto 24 hrs by HPLC analysis; format: ADME, organism-based; settings: in vivo
[4] = Cmax in Wistar rat at 5 mg/kg, ip measured upto 24 hrs by HPLC analysis; format: ADME, organism-based; set-up: time < 24 hrs, dose 5 mg/kg, route ip; settings: in vivo
[5] = Cmax in Wistar rat at 15 mg/kg, ip measured upto 24 hrs by HPLC analysis; format: ADME, organism-based; set-up: dose 15 mg/kg, time < 24 hrs, route ip; settings: in vivo
[6] = AUC (0 to t) in Wistar rat at 5 mg/kg, ip measured upto 24 hrs by HPLC analysis; format: ADME, organism-based; set-up: dose 5 mg/kg, time < 24 hrs, route ip; settings: in vivo
[7] = AUC (0 to t) in Wistar rat at 15 mg/kg, ip measured upto 24 hrs by HPLC analysis; format: ADME, organism-based; set-up: dose 15 mg/kg, time < 24 hrs, route ip; settings: in vivo
[8] = AUC (0 to infinity) in Wistar rat at 5 mg/kg, ip measured upto 24 hrs by HPLC analysis; format: ADME, organism-based; set-up: dose 5 mg/kg, time < 24 hrs, route ip; settings: in vivo
[9] = AUC (0 to infinity) in Wistar rat at 15 mg/kg, ip measured upto 24 hrs by HPLC analysis; format: ADME, organism-based; set-up: dose 15 mg/kg, time < 24 hrs, route ip; settings: in vivo
[10] = MRT (0 to infinity) in Wistar rat at 5 mg/kg, ip measured upto 24 hrs by HPLC analysis; format: ADME, organism-based; settings: in vivo
[11] = Apparent volume of distribution in Wistar rat at 5 mg/kg, ip measured upto 24 hrs by HPLC analysis; format: ADME, organism-based; settings: in vivo
[12] = Apparent volume of distribution in Wistar rat at 15 mg/kg, ip measured upto 24 hrs by HPLC analysis; format: ADME, organism-based; settings: in vivo
[13] = AUMC (0 to infinity) in Wistar rat at 15 mg/kg, ip measured upto 24 hrs by HPLC analysis; format: ADME, organism-based; settings: in vivo
[14] = target: Histone deacetylase 3 (Homo sapiens, UniProt O15379); assay: Inhibition of human recombinant HDAC3 incubated for 15 mins by fluorescence based microplate analysis
[15] = target: Histone deacetylase 5 (Homo sapiens, UniProt Q9UQL6); assay: Inhibition of recombinant HDAC5 (unknown origin) incubated for 30 mins by fluorescence based microplate analysis
[16] = Selectivity ratio of IC50 for cytotoxicity against human HCEC cells assessed as inhibition of cell growth to IC50 for cytotoxicity against human MCF7 cells assessed as inhibition of cell growth; format: toxicity, cell-based; settings: HCEC cells versus MCF7 cells, read-out: Ratio IC50
[17] = target: T1, Histone deacetylase 3 (Mus musculus) (UniProt O88895); assay: Inhibition of HDAC3 in mouse 4T1 cells assessed as increase in acetylation of H4K12 level at 1 uM incubated for 72 hrs by western blot analysis; format: cell-based
T1 sequence (whole entry): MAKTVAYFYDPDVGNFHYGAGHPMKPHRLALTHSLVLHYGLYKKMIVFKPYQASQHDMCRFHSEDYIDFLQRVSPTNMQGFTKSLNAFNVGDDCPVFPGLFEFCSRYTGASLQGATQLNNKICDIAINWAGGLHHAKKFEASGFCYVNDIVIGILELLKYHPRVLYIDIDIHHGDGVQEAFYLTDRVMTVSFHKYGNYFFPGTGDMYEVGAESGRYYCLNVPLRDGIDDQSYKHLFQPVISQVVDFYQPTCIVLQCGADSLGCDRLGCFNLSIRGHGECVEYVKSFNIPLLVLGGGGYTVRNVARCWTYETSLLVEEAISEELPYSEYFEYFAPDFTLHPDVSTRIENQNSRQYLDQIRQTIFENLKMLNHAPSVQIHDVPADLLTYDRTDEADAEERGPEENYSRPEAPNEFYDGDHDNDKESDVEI

[18] = system: 4T1; assay: Induction of apoptosis in mouse 4T1 cells at 550 nM incubated for 72 hrs by annexin/PI staining based flow cytometry analysis (reference value: 1.35%); format: functional
[19] = system: 4T1; assay: Induction of apoptosis in mouse 4T1 cells at 7.72 uM incubated for 72 hrs by annexin/PI staining based flow cytometry analysis (reference value: 1.35%); format: functional
[20] = system: MDA-MB-231; assay: Cytotoxicity against wild type human MDA-MB-231 cells assessed as reduction in cell viability incubated for 72 hrs by MTT assay; format: functional, cell-based; settings: MDA-MB-231, 72 h
[21] = Metabolic stability in rat liver microsome assessed as half life preincubated for 5 mins followed by NADPH addition and measured after 60 mins by HPLC analysis; format: ADME; settings: liver microsomes, time 65 min
[22] = system: Mus musculus; assay: Induction of ROS generation in mouse implanted with mouse 4T1 cells at 5 mg/kg, ip administered for 21 days by DCFH-DA staining based microscopic analysis; format: functional, organism-based; settings: time 21.0 day
[23] = system: 4T1; assay: Antitumor activity against mouse 4T1 cells implanted in BALB/c mouse assessed as reduction in Ki-67 expression in tumor tissue at 5 to 15 mg/kg, ip measured for 21 days by fluorescence based microscopic analysis; format: functional, organism-based; settings: dose 5-15 mg/kg, time 21.0 day
[24] = system: 4T1; assay: Antitumor activity against mouse 4T1 cells implanted in BALB/c mouse assessed as reduction in lung metastasis at 5 to 15 mg/kg, ip measured for 7 days by fluorescence based assay; format: functional, organism-based; settings: dose 5-15 mg/kg, time 7.0 day
[25] = Toxicity in BALB/c mouse implanted with mouse 4T1 cells assessed as liver damage at 5 to 15 mg/kg, ip measured after 21 days by H and E staining based assay; format: organism-based; settings: in vivo, 504 h, dose 5-15 mg/kg, time 21 day
[26] = Toxicity in BALB/c mouse implanted with mouse 4T1 cells assessed as effect on cell shape in liver at 5 to 15 mg/kg, ip measured after 21 days by H and E staining based assay; format: organism-based; settings: in vivo, 504 h, dose 5-15 mg/kg, time 21 day
[27] = Toxicity in BALB/c mouse implanted with mouse 4T1 cells assessed as effect on cell shape in spleen at 5 to 15 mg/kg, ip measured after 21 days by H and E staining based assay; format: organism-based; settings: in vivo, 504 h, dose 5-15 mg/kg, time 21 day
[28] = Toxicity in BALB/c mouse implanted with mouse 4T1 cells assessed as effect on cell size in kidney at 5 to 15 mg/kg, ip measured after 21 days by H and E staining based assay; format: organism-based; settings: in vivo, 504 h, dose 5-15 mg/kg, time 21 day
[29] = Toxicity in BALB/c mouse implanted with mouse 4T1 cells assessed as liver fibrosis at 5 to 15 mg/kg, ip measured after 21 days; format: organism-based; settings: in vivo, 504 h, dose 5-15 mg/kg, time 21 day
[30] = Toxicity in BALB/c mouse implanted with mouse 4T1 cells assessed as kidney fibrosis at 5 to 15 mg/kg, ip measured after 21 days; format: organism-based; settings: in vivo, 504 h, dose 5-15 mg/kg, time 21 day
[31] = system: 4T1; assay: Antitumor activity against mouse 4T1 cells implanted in BALB/c mouse assessed as increase in number of lung nodules at 15 mg/kg, ip measured for 7 days by fluorescence based assay; format: functional, organism-based; settings: time 7.0 day
[32] = system: 4T1; assay: Antitumor activity against mouse 4T1 cells implanted in BALB/c mouse assessed as reduction in lung metastasis at 5 to 15 mg/kg, ip measured for 7 days by H and E staining based assay; format: functional; set-up: scale not given: the % may be the effect or the level left; settings: dose 5-15 mg/kg, time 7 day
[33] = system: 4T1; assay: Antitumor activity against mouse 4T1 cells implanted in BALB/c mouse assessed as reduction in CD44 protein level in tumor at 5 to 15 mg/kg, ip by Western blot analysis; format: functional, organism-based; settings: dose 5-15 mg/kg

Sequence of Histone deacetylase 3 (O15379 whole entry): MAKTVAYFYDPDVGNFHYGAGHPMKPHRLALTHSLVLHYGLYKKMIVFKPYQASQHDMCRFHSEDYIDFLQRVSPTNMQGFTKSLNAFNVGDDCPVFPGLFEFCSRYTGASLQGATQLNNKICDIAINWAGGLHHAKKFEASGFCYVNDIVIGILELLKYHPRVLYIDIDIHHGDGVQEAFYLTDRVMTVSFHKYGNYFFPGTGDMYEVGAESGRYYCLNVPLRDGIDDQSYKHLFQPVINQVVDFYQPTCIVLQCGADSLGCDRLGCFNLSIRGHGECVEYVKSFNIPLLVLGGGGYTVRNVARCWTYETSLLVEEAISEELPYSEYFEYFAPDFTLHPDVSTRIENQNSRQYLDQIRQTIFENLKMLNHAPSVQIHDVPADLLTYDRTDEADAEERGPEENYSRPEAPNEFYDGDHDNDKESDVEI
Sequence of Histone deacetylase 1 (Q13547 whole entry): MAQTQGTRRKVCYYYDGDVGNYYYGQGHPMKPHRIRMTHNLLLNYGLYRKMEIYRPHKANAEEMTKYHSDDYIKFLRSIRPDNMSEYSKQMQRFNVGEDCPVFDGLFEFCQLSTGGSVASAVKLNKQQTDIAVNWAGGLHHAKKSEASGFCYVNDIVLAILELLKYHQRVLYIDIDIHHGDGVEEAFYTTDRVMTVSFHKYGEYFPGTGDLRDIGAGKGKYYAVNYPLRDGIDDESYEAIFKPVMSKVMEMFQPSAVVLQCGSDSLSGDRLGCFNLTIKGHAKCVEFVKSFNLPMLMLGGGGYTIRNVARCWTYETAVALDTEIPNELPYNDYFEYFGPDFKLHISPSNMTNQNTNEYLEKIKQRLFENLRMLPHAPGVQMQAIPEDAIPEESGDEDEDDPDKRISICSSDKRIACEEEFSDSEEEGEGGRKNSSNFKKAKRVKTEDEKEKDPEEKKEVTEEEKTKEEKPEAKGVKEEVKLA
Sequence of Histone deacetylase 5 (Q9UQL6 whole entry): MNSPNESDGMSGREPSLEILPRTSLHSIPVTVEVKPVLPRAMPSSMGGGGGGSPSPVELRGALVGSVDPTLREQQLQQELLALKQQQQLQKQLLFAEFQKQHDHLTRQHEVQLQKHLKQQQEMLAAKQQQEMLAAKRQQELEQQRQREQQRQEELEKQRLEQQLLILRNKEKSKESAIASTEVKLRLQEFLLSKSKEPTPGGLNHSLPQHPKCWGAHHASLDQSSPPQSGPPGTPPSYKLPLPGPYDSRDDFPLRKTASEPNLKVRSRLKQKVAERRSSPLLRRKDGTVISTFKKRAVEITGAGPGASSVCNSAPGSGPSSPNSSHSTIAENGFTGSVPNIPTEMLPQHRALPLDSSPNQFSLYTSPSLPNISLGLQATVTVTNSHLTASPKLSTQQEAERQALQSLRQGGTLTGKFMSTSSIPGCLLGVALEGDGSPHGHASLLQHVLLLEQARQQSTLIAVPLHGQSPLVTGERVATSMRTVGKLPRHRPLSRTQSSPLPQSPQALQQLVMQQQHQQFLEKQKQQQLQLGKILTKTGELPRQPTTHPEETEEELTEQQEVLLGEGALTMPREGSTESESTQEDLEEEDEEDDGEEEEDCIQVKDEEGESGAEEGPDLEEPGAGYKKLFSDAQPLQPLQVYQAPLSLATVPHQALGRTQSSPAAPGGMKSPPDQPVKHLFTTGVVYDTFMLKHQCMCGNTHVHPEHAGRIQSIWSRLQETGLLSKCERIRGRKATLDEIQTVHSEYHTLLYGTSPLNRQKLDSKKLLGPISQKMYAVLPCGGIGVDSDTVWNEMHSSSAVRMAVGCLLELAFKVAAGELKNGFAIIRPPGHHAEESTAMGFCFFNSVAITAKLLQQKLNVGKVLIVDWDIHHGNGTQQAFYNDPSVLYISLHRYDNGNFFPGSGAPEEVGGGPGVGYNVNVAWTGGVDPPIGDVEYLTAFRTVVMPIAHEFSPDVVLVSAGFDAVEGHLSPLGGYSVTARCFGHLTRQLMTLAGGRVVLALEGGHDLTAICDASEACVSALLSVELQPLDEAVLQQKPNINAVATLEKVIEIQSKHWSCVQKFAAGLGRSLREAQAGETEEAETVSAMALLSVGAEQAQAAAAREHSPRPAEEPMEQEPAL

Structure (SMILES): CCCNNC(=O)c1cnc(NCc2ccc(OC)cc2)cn1
- inhibition [1]: < 17%
- half-life [2]: 7.19 h
- Tmax [3]: 2 h
- Cmax [4]: 1110 ng/mL
- Cmax [5]: 9580 ng/mL
- AUC(0-t) at 24 h [6]: 4050 ng·h/mL
- AUC(0-t) at 24 h [7]: 19600 ng·h/mL
- AUC(0-inf) [8]: 4320 ng·h/mL
- AUC(0-inf) [9]: 20600 ng·h/mL
- MRT inf [10]: 5.73 h
- Vz/F [11]: 7.01 (mg/kg)/(ug/ml)
- Vz/F [12]: 12.57 (mg/kg)/(ug/ml)
- AUMC [13]: 114.5 ug/ml.hr^2
- IC50 [14]: 14 nM
- IC50 [15]: > 20000 nM
- selectivity ratio [16]: 286
- inhibition [17]: Active
- Activity [18]: 63.4%
- Activity [19]: 46.9%
- IC50 [20]: 743 nM
- half-life [21]: 0.639 h
- Activity [22]: Active
- Activity [23]: Active
- Activity [24]: Active
- Activity [25]: Non-Toxic
- Activity [26]: Non-Toxic
- Activity [27]: Non-Toxic
- Activity [28]: Non-Toxic
- Activity [29]: Non-Toxic
- Activity [30]: Non-Toxic
- Activity [31]: Active
- Activity [32]: ~90%
- Activity [33]: Active

From ChEMBL document CHEMBL5365457, “Selective HDAC3 Inhibitors with Potent In Vivo Antitumor Efficacy against Triple-Negative Breast Cancer” (J Med Chem, 2023)
